In publication PMC6876247 (Proceedings of the National Academy of Sciences of the …, 2019):

Biological target: T1, GPR43 (Mus musculus, UniProt Q8VCK6)
T1 sequence (Q8VCK6 1-330): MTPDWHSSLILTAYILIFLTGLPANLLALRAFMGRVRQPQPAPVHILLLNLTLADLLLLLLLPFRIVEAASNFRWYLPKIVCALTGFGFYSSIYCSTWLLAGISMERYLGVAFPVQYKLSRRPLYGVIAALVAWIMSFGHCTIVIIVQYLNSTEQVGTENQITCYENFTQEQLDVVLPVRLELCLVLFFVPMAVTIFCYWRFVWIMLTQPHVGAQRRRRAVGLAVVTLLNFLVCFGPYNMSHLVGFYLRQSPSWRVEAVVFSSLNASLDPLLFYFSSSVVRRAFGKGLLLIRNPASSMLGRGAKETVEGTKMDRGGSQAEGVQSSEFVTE
Type: cell-based

- EC50: 760 µM
SMILES: CC(=O)CC(=O)O [acetoacetate]
